{"source": "a melting point compilation (Tetko et al.; mined from patent text by program, amines drawn as free bases though some values may be those of a salt)"}
{"units": {"melting point": "°C"}}
{"smiles": "Cc1cc(NC(=O)C2=C(O)c3ccccc3S(=O)(=O)CC2)no1", "melting point": "226 to 228"}
{"smiles": "Cn1c(=O)cnn(-c2cc(O)c(Cl)cc2Cl)c1=O", "melting point": "199 to 201"}
{"smiles": "COc1ccc(C(=O)C(CCc2cccc(OC)c2)c2ccccc2)cc1", "note": "(centres undefined)", "melting point": "79 to 85"}
{"smiles": "CCN(CC)C(=O)C(=O)Nc1cc(C)c(S(=O)(=O)C[N+](=O)[O-])c(C)c1", "melting point": "128 to 129"}
{"smiles": "CCCCCCCCCCCCOc1cccc(C2=C(O)C(O)(Cc3ccccc3)N(C)C2=O)c1", "note": "(centres undefined)", "melting point": "110 to 111"}
{"smiles": "O=C(OCCn1c(-c2ccccc2)nc2cc(CN3CCN(C(c4ccccc4)c4ccccc4)CC3)ccc21)c1ccccc1", "melting point": 164}
{"smiles": "COC1(C)CN(c2ccc([N+](=O)[O-])cc2F)C1", "melting point": "110 to 111"}
{"smiles": "NCCc1ccc(N)cn1", "melting point": "42 to 45"}
{"smiles": "CCCC(=O)C1=C(O)CC(c2c(C)c(C)c(C)c3c2OC(C)C3C)CC1=O", "note": "(centres undefined)", "melting point": "119 to 120"}
{"smiles": "CN(C(=O)Cc1ccc(Cl)c(Cl)c1)[C@@H]1CCC(=O)C[C@H]1N1CCCC1", "note": "(relative stereo)", "melting point": "148 to 149"}
{"smiles": "COc1ccc(-c2nnc3c4ccccc4c(Nc4ccc(N)cc4)nn23)cc1", "melting point": 295}
{"smiles": "CCCNC(=O)C1(CCCCc2ccc([N+](=O)[O-])cc2)c2ccccc2-c2ccccc21", "melting point": "109 to 110"}
{"smiles": "CC(C)(Oc1ccc(CCCc2cc(-c3ccccc3)no2)cc1)C(=O)O", "melting point": "66 to 70"}
{"smiles": "COc1cc(CNC(=S)NC(COC(=O)C(C)(C)C)Cc2ccc(C)c(C)c2)ccc1OCCN", "note": "(centres undefined)", "melting point": "62 to 63"}
{"smiles": "CCn1ncc2c(NCC3(O)CCCCC3)c3cc(OC)ccc3nc21", "melting point": "201 to 203"}
{"smiles": "COc1ccc([C@H](O)[C@@H](Cc2ccc(C(F)(F)F)cc2)NC(=O)CCc2ccccc2)cc1", "note": "(racemic)", "melting point": "116 to 117"}
{"smiles": "CCOCc1nc2c(N)nc3cc(OCc4ccccc4)ccc3c2n1CC(C)(C)NS(C)(=O)=O", "melting point": "264 to 266"}
{"smiles": "O=C1C2CSCC1CN(Cc1ccccc1)C2", "melting point": "91 to 92"}
{"smiles": "COc1cc([N+](=O)[O-])ccc1-c1ccc(-c2ccc([N+](=O)[O-])cc2OC)o1", "melting point": "308 to 310"}
{"smiles": "COc1cc(Cl)c(NN)c(Cl)c1", "melting point": "124 to 125"}
{"smiles": "O=C1NC(=O)C(c2c[nH]c3ccccc23)C1c1cc2c3c(ccn3CCC2)c1", "note": "(centres undefined)", "melting point": "141 to 145"}
{"smiles": "Cc1cc(-c2ccnc(C#N)c2)n(-c2ccc(F)cc2)n1", "melting point": "94 to 95"}
{"smiles": "CC(=O)OC1CC=C(CCCCCCC(=O)O)C1=O", "note": "(centres undefined)", "melting point": "62 to 65"}
{"smiles": "CCCCc1cnc2ccc(C(=O)O)cc2c1O", "melting point": 260}
{"smiles": "CS(=O)(=O)c1ccc(-c2cc(CO)nn2CC2CCCCC2)cc1", "melting point": 104}
{"smiles": "CC(CSC(=O)c1ccccc1)C(=O)N1Cc2ccccc2CC1C(=O)O", "note": "(centres undefined)", "melting point": "154 to 155"}
{"smiles": "O=C(NOCCBr)Nc1ccc(Cl)c(Cl)c1", "melting point": 126}
{"smiles": "Cc1cn(-c2cc(C)c3[nH]c(=O)ccc3c2)c(C)n1", "melting point": "322 to 325"}
{"smiles": "CCc1nc2cc(C(=O)NC)c(Cl)cc2n1-c1ccc(CCOC(=O)NS(=O)(=O)c2ccc(C)cc2)cc1", "melting point": "201 to 204"}
{"smiles": "CCCCc1nc(SCCCCCC(=O)O)c(C(=O)O)n1Cc1cc2c(cc1Cl)OCO2", "melting point": 128}
{"smiles": "OCC1CCN(c2ccncc2)CC1", "melting point": "183 to 185"}
{"smiles": "COc1cc(NC(=O)/C=C/c2ccc(C(C)(C)C)cc2)ccc1O", "melting point": "203 to 204"}
{"smiles": "Cc1c(-c2ccc(Cl)cc2Cl)nn(C)c1S(C)(=O)=O", "melting point": "110 to 112"}
{"smiles": "CCOC(=O)Cn1c(=O)c2cc(Cl)ccc2n(Cc2ccc(Br)cc2F)c1=O", "melting point": "145 to 146"}
{"smiles": "C/C=C/C(=O)OC(COc1ccc(C(=O)c2ccccc2)c(O)c1)COc1ccc(C(=O)c2ccccc2)c(O)c1", "melting point": "99 to 103"}
{"smiles": "CC(C)(N)c1ccc(-c2nc(Nc3ccc(-n4cncn4)cc3)ncc2C#N)cc1", "melting point": "208 to 209"}
{"smiles": "C[C@H]1N(C(=O)c2ccc(C(F)(F)F)cc2)CC(O)O[C@@]1(Cn1cncn1)c1ccc(Cl)cc1Cl", "note": "(relative stereo)", "melting point": "199 to 200"}
{"smiles": "O=C1C=C(NC(=O)C(=O)c2cn(Cc3ccc(Cl)cc3)c3ccccc23)CS1", "melting point": "248 to 250"}
{"smiles": "COc1cccc([C@H]2O[C@H](CC(=O)Nc3ccc4oc(CCC(=O)O)cc4c3)C(=O)N(CC(C)(C)CO)c3ccc(Cl)cc32)c1OC", "melting point": "207 to 209"}
{"smiles": "O=S1(=O)NCN(C2CCCCCCC2)c2cc(Cl)c(Cl)cc21", "melting point": "154 to 155"}
{"smiles": "O=C(O)N1C=NN2c3cccnc3N(c3cccc(Cl)c3)CC12", "note": "(centres undefined)", "melting point": "213 to 216"}
{"smiles": "COc1cccc(C(O)c2ccncc2)c1OC", "note": "(centres undefined)", "melting point": "126 to 128"}
{"smiles": "CN1CCCCC1CCn1nc(-c2c(-c3ccccc3)nn3ccccc23)ccc1=O", "note": "(centres undefined)", "melting point": "114 to 116"}
{"smiles": "COC(=O)C=Cc1cc2c(nc1C)C(=Cc1ccccc1)CCC2", "melting point": "121 to 123"}
{"smiles": "CC(C)CCOc1c(Cl)c(Sc2ccccc2N)c(OCCC(C)C)c2c1C(=N)NC2=N", "melting point": "175 to 176"}
{"smiles": "CC(c1ccc(OCCC2OCCCO2)cc1)(c1ccc(OCCC2OCCCO2)cc1)c1ccc(OCCC2OCCCO2)cc1", "melting point": 101}
{"smiles": "CCOC(=O)c1cc2cccc(OCc3ccccc3)c2[nH]1", "melting point": "82 to 83"}
{"smiles": "CC(=O)OC1(c2nc3ccccc3s2)C=CC(=O)C=C1", "melting point": 101}
{"smiles": "Cc1ccc([N+](=O)[O-])cc1S(=O)(=O)n1ccnc1C", "melting point": "159 to 161"}
{"smiles": "Clc1ccc(CSc2nnc(-c3ccc4occc4c3)o2)cc1", "melting point": "162 to 163"}
{"smiles": "Clc1ccc(Sc2ncccn2)cc1", "melting point": "68 to 70"}
{"smiles": "CCC1C(=O)c2c(cc(OCC(=O)O)c(Cl)c2Cl)C1c1ccccc1", "note": "(centres undefined)", "melting point": "199 to 203"}
{"smiles": "CCOc1nn(Cc2ccc(OCc3ccccc3)cc2)cc1CCC(=O)O", "melting point": "115 to 116"}
{"smiles": "CC1(C)CCC23CCC4(C)C(CCC5C6(C)CCC(O)C(C)(C)C6CCC54C)C2C1OC3", "note": "(centres undefined)", "melting point": "268 to 269"}
{"smiles": "Cc1sc(NS(=O)(=O)c2ccc(-c3ccccc3)cc2)nc1CC(=O)N1CCOCC1", "melting point": "204 to 206"}
{"smiles": "COc1cc2cc(-c3ccc(OCC(O)CNC(C)C)cc3)n(C)c(=O)c2cc1OC", "note": "(centres undefined)", "melting point": "206 to 207"}
{"smiles": "On1c(-c2ccc(F)cc2)nc2ccc(Cn3ccnc3)cc21", "melting point": 82}
{"smiles": "COc1ccc(/C=C(\\C#N)c2ccc(Cl)cc2Cl)cc1OC1CCCC1", "melting point": "105 to 107"}
{"smiles": "CCC(=O)c1c(C(=O)C(C)C)c2ccc(C(N)=O)cc2n1Cc1ccccc1Cl", "melting point": "145 to 147"}
{"smiles": "COC(=O)COc1cccc2c1CCC(CC(=O)CBr)C2", "note": "(centres undefined)", "melting point": "77 to 78"}
{"smiles": "O=C(c1ccc(O)c(Cl)c1)c1ccc(Cl)cc1Cl", "melting point": 145}
{"smiles": "CC(=O)OC1CC(=O)N(CC(N)=O)C1", "note": "(centres undefined)", "melting point": "84 to 86"}
{"smiles": "COc1nc(C)nc(NC(=O)NS(=O)(=O)c2c(C)csc2C)n1", "melting point": 189}
{"smiles": "Cn1ncc([N+](=O)[O-])c1CBr", "melting point": "71 to 73"}
{"smiles": "Cc1ccc(O[C@H]2CCN(C(=O)OCc3ccccc3)C[C@H]2O)cc1C", "note": "(relative stereo)", "melting point": "140 to 143"}
{"smiles": "CCOCc1nc2c(N)nc3ccccc3c2n1CCCC1(O)CCCCC1", "melting point": "175 to 176"}
{"smiles": "CCCCCOc1ccc(C#N)cc1-c1cc(C(=N)Nc2cccc(C(F)(F)F)c2)ccc1OCCCCC", "melting point": "74 to 75"}
{"smiles": "COC1C(CO)OC(n2c3ccc(CO)cc3c3c4c(c5c6cc(CO)ccc6[nH]c5c32)C(=O)NC4=O)C(O)C1O", "note": "(centres undefined)", "melting point": "> 300"}
{"smiles": "CC(N)Cc1ncc(O)c(C(=O)c2ccccc2)c1C(=O)c1ccccc1", "note": "(centres undefined)", "melting point": "110 to 112"}
{"smiles": "CCOCc1nc2c(N)nc3cc(OCCN)ccc3c2n1CC(C)(C)O", "melting point": "163 to 165"}
{"smiles": "FC(F)(F)c1csc(I)n1", "melting point": "35.5 to 36"}
{"smiles": "Cc1cccc(C(=C2CN(C(c3ccccc3)c3ccccc3)C2)S(C)(=O)=O)c1", "melting point": 180}
{"smiles": "O=C(Nc1ccc2nc(CN3CCCC3)ccc2c1)N1CCC(c2ccc(F)cc2)CC1", "melting point": "206 to 207"}
{"smiles": "CC(C#N)c1ccc2c(=O)c3ccccc3ccc2c1", "note": "(centres undefined)", "melting point": "108 to 109"}
{"smiles": "COc1ccc(CCN(C)CCOc2ccc(NC(=O)c3cccc4c(=O)c5ccccc5n(C)c34)cc2)cc1OC", "melting point": 139}
{"smiles": "Brc1cncc(-c2ccccc2)c1", "melting point": "42 to 44"}
{"smiles": "CCCc1cc(Cl)c2oc(C(=O)c3ccc(Cl)cc3)c(C)c2c1OC(=O)c1ccc(Cl)cc1", "melting point": "177 to 182"}
{"smiles": "NCC1(c2cccc(C(F)(F)F)c2)CCN(C(=O)CN2CCN(c3cnccn3)CC2)CC1", "melting point": "152 to 153"}
{"smiles": "O=C1NCc2c(O)nc3ccccc3c21", "melting point": "245 to 246"}
{"smiles": "COc1c(Cl)ccc(-c2cc(N)c(Cl)c(C(=O)NOC(C)(C)C)n2)c1F", "melting point": "184 to 187"}
{"smiles": "C=CCOc1cc(C)c(OC(C)=O)c(C)c1C", "melting point": "40 to 41"}
{"smiles": "O=C(NCCCCSc1ccncc1)c1ccccc1CO", "melting point": "87 to 88"}
{"smiles": "Nc1ccc2sc(Cl)nc2c1", "melting point": "146 to 149"}
{"smiles": "Oc1ccc(Oc2ncc(C(F)(F)F)cc2F)cc1", "melting point": 97}
{"smiles": "CNc1c(N)cnn1C", "melting point": "185 to 188"}
{"smiles": "CCn1c(=O)c2[nH]c(/C=C/c3cc(C(F)(F)F)cc(C(F)(F)F)c3)nc2n(CC)c1=O", "melting point": "> 280"}
{"smiles": "CC(=O)OC(C(=O)O)c1c(C(C)C)cc(C(C)C)cc1C(C)C", "note": "(centres undefined)", "melting point": "166 to 169"}
{"smiles": "O=c1c(C2=Nc3ccccc3S(=O)(=O)N2)c(O)c2ccccc2n1CC1CCCC1", "melting point": "255 to 256"}
{"smiles": "CCCCCCCCCCCCCCCNC(=O)OCCOCCOCCOC(=O)N(Cc1ccccn1)C(C)=O", "melting point": "42 to 43"}
{"smiles": "COc1ccc(CN(C)CCSc2ccc(NC(=O)c3cccc4c(=O)c5ccccc5[nH]c34)cc2)cc1OC", "melting point": 113}
{"smiles": "Oc1nc2ccccc2c(O)c1O", "melting point": "> 250"}
{"smiles": "Cc1ccc([C@@H](O)[C@H](Br)C(=O)N2C(=O)O[C@H](c3ccccc3)[C@@H]2C)cc1", "melting point": 139}
{"smiles": "CCCCS(=O)c1ncn(C(=O)N(CCC)CCC)n1", "note": "(centres undefined)", "melting point": "39 to 40"}
{"smiles": "CCOC(=O)CCCCCCC1C(=O)NC(=O)N1CCC(O)C1CCCCC1", "note": "(centres undefined)", "melting point": "62 to 63"}
{"smiles": "NC(=O)c1c(-c2ccccc2)csc1O", "melting point": "108 to 110"}
{"smiles": "CCOC(=O)C(Sc1nc2cc(Cl)ccc2s1)c1ccccc1", "note": "(centres undefined)", "melting point": "62 to 64"}
{"smiles": "C[C@@H](C(=O)Nc1ccc(-n2nc(C(F)(F)F)cc2C2CC2)cc1)n1nnc2cccnc21", "melting point": "186 to 191"}
{"smiles": "COc1ccc(CN2CCC(c3cn(Cc4cccs4)c4cc(F)ccc34)CC2)cc1C(=O)O", "melting point": "245 to 246"}
{"smiles": "CCCCS(=O)(=O)Oc1cn(C)c2ccccc2c1=O", "melting point": "143 to 144"}
